Activity calls are given as the source filed them. The calls are words filed in the database; no cut-off is given here.
Tests used:
[1] = biological target: T1, Aurora kinase A (Homo sapiens) (UniProt O14965); assay: Irreversible inhibition of recombinant human Aurora A (1 to 403 residues) expressed in Escherichia coli assessed as ratio of Kinact/Ki using STK-substrate 2-biotin as substrate at 0.625 to 40 uM incubated upto 7000 sec in presence of ATP by HTRF assay; conditions: dose 0.625-40 µM
T1 sequence (whole entry): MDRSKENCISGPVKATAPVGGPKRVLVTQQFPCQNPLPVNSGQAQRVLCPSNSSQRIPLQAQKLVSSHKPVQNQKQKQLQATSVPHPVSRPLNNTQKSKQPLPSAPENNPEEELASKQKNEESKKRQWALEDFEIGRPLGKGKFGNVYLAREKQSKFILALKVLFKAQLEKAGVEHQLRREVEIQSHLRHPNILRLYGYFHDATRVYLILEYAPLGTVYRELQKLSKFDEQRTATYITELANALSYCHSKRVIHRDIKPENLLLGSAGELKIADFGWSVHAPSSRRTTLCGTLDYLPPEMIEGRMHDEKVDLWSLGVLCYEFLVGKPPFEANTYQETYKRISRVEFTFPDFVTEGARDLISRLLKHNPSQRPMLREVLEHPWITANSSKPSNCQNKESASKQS

SJSA-1 = assay: Antiproliferative activity against human SJSA-1 cells assessed as inhibition of cell proliferation incubated for 48 hrs by CCK-8 assay; type: functional, cell-based; conditions: SJSA-1, 48 h
[2] = Toxicity in BALB/c nude mouse xenografted with human MDA-MB-231 cells assessed as inflammatory cell infiltration in liver at 15 mg/kg,ip every 2days for 20 days by Hematoxylin and Eosin staining based microscopy; type: organism-based; conditions: in vivo, 480 h, time 20 day
[3] = Metabolic stability in Sprague-Dawley rat liver microsomes assessed as elimination rate constant at 1.75 uM incubated upto 60 mins in presence of NADPH by LC-MS analysis; type: ADME, Microsome
HeLa = assay: Antiproliferative activity against human HeLa cells assessed as inhibition of cell proliferation incubated for 48 hrs by CCK-8 assay; type: functional, cell-based
Aurora kinase A [4] = biological target: T2, Aurora kinase A (Homo sapiens, UniProt O14965); assay: Inhibition of recombinant human Aurora A (1 to 403 residues) expressed in Escherichia coli using STK-substrate 2-biotin as substrate incubated for 40 mins in presence of 7.2uM ATP by HTRF assay
T2 sequence (O14965 whole entry): T1 sequence (whole entry)

MDA-MB-231 [5] = assay: Antiproliferative activity against human MDA-MB-231 cells assessed as inhibition of cell proliferation incubated for 48 hrs by CCK-8 assay; type: functional, cell-based; conditions: MDA-MB-231, 48 h
[6] = biological target: T1, Aurora kinase A (Homo sapiens); assay: Binding affinity to Aurora A in human MDA-MB-231 cells assessed as thermal stability at 46 to 62 degreeC at 1 uM incubated for 1 hrs by […] analysis; type: cell-based
[7] = biological target: T1, Aurora kinase A (Homo sapiens); assay: Covalent irreversible inhibition of recombinant human Aurora A (1 to 403 residues) expressed in Escherichia coli using STK-substrate 2-biotin as substrate at 0.625 to 40 uM incubated upto 120 mins in presence of ATP by HTRF assay; conditions: dose 0.625-40 µM, TDE = time-dependent effect
[8] = Metabolic stability in Sprague-Dawley rat liver microsomes assessed as intrinsic clearance at 1.75 uM incubated upto 60 mins in presence of NADPH by LC-MS analysis; type: ADME, Microsome; conditions: read-out: CLH
[9] = Metabolic stability in Sprague-Dawley rat liver microsomes assessed as half life at 1.75 uM incubated upto 60 mins in presence of NADPH by LC-MS analysis; type: ADME, Microsome
[10] = Toxicity in BALB/c nude mouse xenografted with human MDA-MB-231 cells assessed as parenchymal injury in spleen at 15 mg/kg,ip every 2days for 20 days by Hematoxylin and Eosin staining based microscopy; type: organism-based; conditions: in vivo, 480 h, time 20 day
Aurora kinase A [11] = biological target: T2, Aurora kinase A; assay: Inhibition of recombinant human Aurora A (1 to 403 residues) expressed in Escherichia coli using STK-substrate 2-biotin as substrate incubated for 60 mins in presence of 24 uM ATP by HTRF assay
Mus musculus = assay: In vivo inhibition of Aurora signalling pathway in human MDA-MB-231 cells xenografted in BALB/c nude mouse assessed as decrease in Aurora A phosphorylation at Thr288 residue in tumor at 15 mg/kg,ip every 2days for 20 days by Western blot analysis; type: functional, organism-based; conditions: time 20.0 day
Aurora kinase A [12] = biological target: T2, Aurora kinase A; assay: Inhibition of recombinant human Aurora A (1 to 403 residues) expressed in Escherichia coli using STK-substrate 2-biotin as substrate incubated for 15 mins in presence of 24 uM ATP by HTRF assay
MDA-MB-231 [13] = assay: Induction of apoptosis in human MDA-MB-231 cells assessed as necrotic cells at 1.25 uM incubated for 24 hrs by Annexin V-FITC staining based flow cytometry (Rvb= 1.67%); type: functional
MDA-MB-231 [14] = assay: Inhibition of […] in human MDA-MB-231 cells at 1 uM incubated for 14 days by crystal violet staining based colony formation assay (Rvb= 115+/-4%); type: functional; conditions: MDA-MB-231, 336 h, time 14 day
Aurora kinase A [15] = biological target: T2, Aurora kinase A; assay: Inhibition of recombinant human Aurora A (1 to 403 residues) expressed in Escherichia coli using STK-substrate 2-biotin as substrate incubated for 60 mins in presence of 7.2uM ATP by HTRF assay
Aurora kinase A [16] = biological target: T2, Aurora kinase A; assay: Inhibition of recombinant human Aurora A (1 to 403 residues) expressed in Escherichia coli using STK-substrate 2-biotin as substrate incubated for 15 mins in presence of 0.48 uM ATP by HTRF assay
MDA-MB-231 [17] = assay: Induction of apoptosis in human MDA-MB-231 cells assessed as early apoptotic cells at 5 uM incubated for 24 hrs by Annexin V-FITC staining based flow cytometry (Rvb= 3.3%); type: functional
MDA-MB-231 [18] = assay: Induction of apoptosis in human MDA-MB-231 cells assessed as late apoptotic cells at 5 uM incubated for 24 hrs by Annexin V-FITC staining based flow cytometry (Rvb= 6.90%); type: functional
MDA-MB-231 [19] = assay: Induction of apoptosis in human MDA-MB-231 cells assessed as early apoptotic cells at 2.5 uM incubated for 24 hrs by Annexin V-FITC staining based flow cytometry (Rvb= 3.3%); type: functional
[20] = Toxicity in BALB/c nude mouse xenografted with human MDA-MB-231 cells assessed as inflammatory cell infiltration in heart at 15 mg/kg,ip every 2days for 20 days by Hematoxylin and Eosin staining based microscopy; type: organism-based; conditions: in vivo, 480 h, time 20 day
MDA-MB-231 [21] = assay: Induction of apoptosis in human MDA-MB-231 cells assessed as live cells at 1.25 uM incubated for 24 hrs by Annexin V-FITC staining based flow cytometry (Rvb= 88.1%); type: functional
Aurora kinase A [22] = biological target: T2, Aurora kinase A; assay: Inhibition of recombinant human Aurora A (1 to 403 residues) expressed in Escherichia coli using STK-substrate 2-biotin as substrate incubated for 60 mins in presence of 0.48 uM ATP by HTRF assay
MDA-MB-231 [23] = assay: Induction of apoptosis in human MDA-MB-231 cells assessed as late apoptotic cells at 1.25 uM incubated for 24 hrs by Annexin V-FITC staining based flow cytometry (Rvb= 6.90%); type: functional
[24] = biological target: Aurora kinase B (Homo sapiens) (UniProt Q96GD4); assay: Binding affinity to Aurora B in human MDA-MB-231 cells assessed as thermal stability at 46 to 62 degreeC at 1 uM incubated for 1 hrs by […] analysis; type: cell-based
Chain of Aurora kinase B (Homo sapiens) (Q96GD4 whole entry): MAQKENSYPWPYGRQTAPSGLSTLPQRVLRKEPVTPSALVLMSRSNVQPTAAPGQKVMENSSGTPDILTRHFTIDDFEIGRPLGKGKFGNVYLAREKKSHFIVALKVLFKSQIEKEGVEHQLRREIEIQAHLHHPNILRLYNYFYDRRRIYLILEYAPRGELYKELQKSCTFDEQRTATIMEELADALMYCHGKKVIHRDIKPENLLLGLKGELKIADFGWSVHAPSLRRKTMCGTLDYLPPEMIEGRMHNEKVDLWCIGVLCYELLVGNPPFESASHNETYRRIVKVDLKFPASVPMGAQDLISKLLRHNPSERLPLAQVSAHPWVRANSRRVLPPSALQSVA

C=CC(=O)Nc1ccc(-c2nc(Nc3cc(C)[nH]n3)c3ccc(N4CCN(C)CC4)cc3n2)cc1
Ratio [1]: 6.02 10^3/M/s
IC50 (SJSA-1): 4270 nM
Activity [2]: Non-Toxic
k el at 1 h, 1.75 µM [3]: 0.000467 s⁻¹
IC50 (HeLa): 6990 nM
IC50 (Aurora kinase A [4]): 5.19 nM
IC50 (MDA-MB-231 [5]): 1540 nM
Activity [6]: Active
inhibition [7]: Tde
microsomal CLint at 1.75 µM [8]: 71.3 µL/min/mg
half-life at 1.75 µM [9]: 24.3 min
Activity [10]: Non-Toxic
IC50 (Aurora kinase A [11]): 23.3 nM
inhibition (Mus musculus): Active
IC50 (Aurora kinase A [12]): 5.24 nM
Activity (MDA-MB-231 [13]): 1.83%
inhibition at 1 µM (MDA-MB-231 [14]): 13%
IC50 (Aurora kinase A [15]): 8.13 nM
IC50 (Aurora kinase A [16]): 1.49 nM
Activity (MDA-MB-231 [17]): 28.6%
Activity (MDA-MB-231 [18]): 62.6%
Activity (MDA-MB-231 [19]): 17.7%
Activity [20]: Non-Toxic
Activity (MDA-MB-231 [21]): 69.5%
IC50 (Aurora kinase A [22]): 3.41 nM
Activity (MDA-MB-231 [23]): 18.1%
Activity [24]: inactive

— ChEMBL document CHEMBL5370554, “Discovery of a first-in-class Aurora A covalent inhibitor for the treatment of triple negative breast cancer” (Eur J Med Chem, 2023)
